{"source": "patent US12227494B2", "about": "“Polymorphisms of HM30181 mesylate” (ATHENEX R&D, LLC, priority 2020, dated 2025)", "type_in_all_cases": "physicochemical", "key": {"[1]": {"assay": "Estimated solubility of HM30181 mesylate Type A starting material in solvents (stepwise solvent addition)", "settings": "for solubility: thermodynamic from solid"}, "[2]": {"assay": "Cyclic DSC heating followed by XRPD / 1H-NMR (thermal stability of solid form)", "procedure": "Based on ^1H-NMR data, decomposition of Type A initiated after heating to 200° C. (see FIG. 14).\n(§1) XRPD was performed using a Panalytical X'Pert3™ Powder XRPD and on a Si zero-background holder. The 2θ position was calibrated against a Panalytical™ 640 Si powder standard. Details of XRPD used in the experiments are listed below in Table 20.\nIn some studies, a cyclic DSC method was used. In such cycling DSC methods temperature was ramped from ambient to 150° C. at a heating rate of 10° C./min using N2 as the purge gas, then cooled by 10° C. to 25° C. This temperature cycle repeated twice (see Table 22).\n(§2) Proton NMR were obtained using a Varian 200M™ NMR in deuterated DMSO (DMSO-d6)."}, "[3]": {"assay": "XRPD of polymorphs after air-drying or vacuum-drying (solid form stability)", "procedure": "Large scale studies were performed with HM30181 mesylate Type A starting material on a 200 mg scale as described below. Solids were isolated by vacuum filtration. The wet cakes from filtration from DMA, DMF, and NMP slurries were washed with 1 mL to 2 mL methanol to remove solvents. […]\nas §1"}, "[4]": {"assay": "1H-NMR check for disproportionation or degradation", "settings": "slurry in DMF at 150° C., 5 days", "from_the_text": "At large scale, a slurry of HM30181 mesylate Type A starting material in methanol at ambient conditions generated a mixture of HM30181 mesylate Type B and HM30181 mesylate Type A after 9 days (see FIG. 32). After 14 days, the slurry in methanol generated a HM30181 mesylate Type N polymorph. […] A scaled-up slurry of HM30181 mesylate Type A starting material in DMA yielded HM30181 mesylate Type E after 6 days (see FIG. 35). […] A scaled-up slurry of HM30181 mesylate Type A starting material in DMF at 50° C. yielded HM30181 mesylate Type F rather than the expected HM30181 mesylate Type G after 9 days (see FIG. 36). […] This slurry was heated in an attempt to generate HM30181 mesylate Type G. A scaled-up slurry of HM30181 mesylate Type A starting material in DMF at 100° C. yielded HM30181 mesylate Type F after 2 days (see FIG. 37). A scaled-up slurry of HM30181 mesylate Type A starting material in DMF at 150° C. yielded a previously unobserved XRPD pattern after 5 days (see FIG. 37).\nBy 1H-NMR, HM30181 mesylate Type E contained DMA, HM30181 mesylate Type F contains DMF, and HM30181 mesylate Type N contains MeOH.\nas §2"}}}
{"smiles": "COc1cc2c(cc1OC)CN(CCc1ccc(-n3nnc(-c4cc(OC)c(OC)cc4NC(=O)c4cc(=O)c5ccccc5o4)n3)cc1)CC2.CS(=O)(=O)O", "note": "[HM30181 mesylate Type A, HM30181 mesylate]", "values": [{"measurement": "solubility", "setting": "[1]; organic solvent or mixture, solvent 1,4-Dioxane", "result": "< 1000", "unit": "µg/mL"}, {"measurement": "solubility", "setting": "[1]; organic solvent or mixture, solvent 2-MeTHF", "result": "< 1000", "unit": "µg/mL"}, {"measurement": "solubility", "setting": "[1]; organic solvent or mixture, solvent ACN", "result": "< 1000", "unit": "µg/mL"}, {"measurement": "solubility", "setting": "[1]; organic solvent or mixture, solvent Acetone", "result": "< 1000", "unit": "µg/mL"}, {"measurement": "solubility", "setting": "[1]; organic solvent or mixture, solvent CHCl3", "result": "5000 to 6700", "unit": "µg/mL"}, {"measurement": "solubility", "setting": "[1]; organic solvent or mixture, solvent Cumene", "result": "< 1000", "unit": "µg/mL"}, {"measurement": "solubility", "setting": "[1]; organic solvent or mixture, solvent Cyclohexane", "result": "< 1000", "unit": "µg/mL"}, {"measurement": "solubility", "setting": "[1]; organic solvent or mixture, solvent DCM", "result": "< 1000", "unit": "µg/mL"}, {"measurement": "solubility", "setting": "[1]; organic solvent or mixture, solvent DMA", "result": "3200 to 4800", "unit": "µg/mL"}, {"measurement": "solubility", "setting": "[1]; organic solvent or mixture, solvent DMSO", "result": "22000 to 44000", "unit": "µg/mL"}, {"measurement": "solubility", "setting": "[1]; organic solvent or mixture, solvent EtOAc", "result": "< 900", "unit": "µg/mL"}, {"measurement": "solubility", "setting": "[1]; organic solvent or mixture, solvent EtOH", "result": "< 900", "unit": "µg/mL"}, {"measurement": "solubility", "setting": "[1]; organic solvent or mixture, solvent IPA", "result": "< 1000", "unit": "µg/mL"}, {"measurement": "solubility", "setting": "[1]; organic solvent or mixture, solvent IPOAc", "result": "< 1000", "unit": "µg/mL"}, {"measurement": "solubility", "setting": "[1]; organic solvent or mixture, solvent MEK", "result": "< 1000", "unit": "µg/mL"}, {"measurement": "solubility", "setting": "[1]; organic solvent or mixture, solvent MIBK", "result": "< 1000", "unit": "µg/mL"}, {"measurement": "solubility", "setting": "[1]; organic solvent or mixture, solvent MTBE", "result": "< 1000", "unit": "µg/mL"}, {"measurement": "solubility", "setting": "[1]; organic solvent or mixture, solvent MeOH", "result": "1700 to 2000", "unit": "µg/mL"}, {"measurement": "solubility", "setting": "[1]; organic solvent or mixture, solvent NMP", "result": "4800 to 6300", "unit": "µg/mL"}, {"measurement": "solubility", "setting": "[1]; organic solvent or mixture, solvent T-BuOH", "result": "< 1000", "unit": "µg/mL"}, {"measurement": "solubility", "setting": "[1]; organic solvent or mixture, solvent THF", "result": "< 1000", "unit": "µg/mL"}, {"measurement": "solubility", "setting": "[1]; organic solvent or mixture, solvent Toluene", "result": "< 1000", "unit": "µg/mL"}, {"measurement": "solubility", "setting": "[1]; organic solvent or mixture, solvent n-Heptane", "result": "< 1000", "unit": "µg/mL"}, {"measurement": "solubility", "setting": "[1]; organic solvent or mixture, solvent n-Propanol", "result": "< 1000", "unit": "µg/mL"}, {"measurement": "solubility", "setting": "[1]; organic solvent or mixture, solvent n-Propyl acetate", "result": "< 1000", "unit": "µg/mL"}, {"measurement": "Dissolved after heating to 50° C. for 2 hours?", "setting": "[1]; solvent 1,4-Dioxane", "result": "No"}, {"measurement": "Dissolved after heating to 50° C. for 2 hours?", "setting": "[1]; solvent 2-MeTHF", "result": "No"}, {"measurement": "Dissolved after heating to 50° C. for 2 hours?", "setting": "[1]; solvent ACN", "result": "Yes"}, {"measurement": "Dissolved after heating to 50° C. for 2 hours?", "setting": "[1]; solvent Acetone", "result": "No"}, {"measurement": "Dissolved after heating to 50° C. for 2 hours?", "setting": "[1]; solvent Cumene", "result": "No"}, {"measurement": "Dissolved after heating to 50° C. for 2 hours?", "setting": "[1]; solvent Cyclohexane", "result": "No"}, {"measurement": "Dissolved after heating to 50° C. for 2 hours?", "setting": "[1]; solvent DCM", "result": "Yes"}, {"measurement": "Dissolved after heating to 50° C. for 2 hours?", "setting": "[1]; solvent EtOAc", "result": "No"}, {"measurement": "Dissolved after heating to 50° C. for 2 hours?", "setting": "[1]; solvent EtOH", "result": "Almost"}, {"measurement": "Dissolved after heating to 50° C. for 2 hours?", "setting": "[1]; solvent H2O", "result": "No"}, {"measurement": "Dissolved after heating to 50° C. for 2 hours?", "setting": "[1]; solvent IPA", "result": "No"}, {"measurement": "Dissolved after heating to 50° C. for 2 hours?", "setting": "[1]; solvent IPOAc", "result": "No"}, {"measurement": "Dissolved after heating to 50° C. for 2 hours?", "setting": "[1]; solvent MEK", "result": "No"}, {"measurement": "Dissolved after heating to 50° C. for 2 hours?", "setting": "[1]; solvent MIBK", "result": "No"}, {"measurement": "Dissolved after heating to 50° C. for 2 hours?", "setting": "[1]; solvent MTBE", "result": "No"}, {"measurement": "Dissolved after heating to 50° C. for 2 hours?", "setting": "[1]; solvent T-BuOH", "result": "No"}, {"measurement": "Dissolved after heating to 50° C. for 2 hours?", "setting": "[1]; solvent THF", "result": "No"}, {"measurement": "Dissolved after heating to 50° C. for 2 hours?", "setting": "[1]; solvent Toluene", "result": "No"}, {"measurement": "Dissolved after heating to 50° C. for 2 hours?", "setting": "[1]; solvent n-Heptane", "result": "No"}, {"measurement": "Dissolved after heating to 50° C. for 2 hours?", "setting": "[1]; solvent n-Propanol", "result": "No"}, {"measurement": "Dissolved after heating to 50° C. for 2 hours?", "setting": "[1]; solvent n-Propyl acetate", "result": "No"}, {"measurement": "solubility", "setting": "[1]; water, solvent H2O", "result": "< 1000", "unit": "µg/mL"}, {"measurement": "Heating temperature after which decomposition initiated (1H-NMR)", "setting": "[2]; 1H-NMR of heated sample", "result": 200, "unit": "°C"}, {"measurement": "XRPD after cyclic DSC", "setting": "[2]; heated to 110° C.", "result": "no XRPD change"}, {"measurement": "XRPD after cyclic DSC", "setting": "[2]; heated to 185° C.", "result": "reduced crystallinity"}, {"measurement": "XRPD after cyclic DSC", "setting": "[2]; heated to 200° C.", "result": "amorphous material"}, {"measurement": "XRPD (air-dry)", "setting": "[3]; air-dried solids from Crash cooling 50° C.-->−20° C., ACN 10 mL, Exp. 6007235-17-C12", "result": "Type C"}, {"measurement": "XRPD (air-dry)", "setting": "[3]; air-dried solids from Slow Cooling 50° C.-->4° C., ACN 10 mL, Exp. 6007235-17-C4", "result": "Type C"}, {"measurement": "XRPD (air-dry)", "setting": "[3]; air-dried solids from Slow Cooling 50° C.-->4° C., DCM 10 mL, Exp. 6007235-17-C5", "result": "Type C"}, {"measurement": "Chemical stability in DMF slurry by 1H-NMR", "setting": "[4]", "result": "resulted in degradation"}]}
